Results taken from patent US9775903B2, “1-deoxy analogs of 1,25-dihydroxyvitamin D3 compounds” (JOHNS HOPKINS UNIVERSITY, priority 2010, dated 2017).

Key:
[1] = system: CYP24 expression in PMA-stimulated U937 cells; test: CYP24 expression in PMA-stimulated U937 cells, which do not substantially express CYP27B1; type: cell-based, human; settings: concentrations up to 100 nM, 6 hr
Description: PMA-stimulated U937 cells were maintained in RPMI media supplemented with 10 mM HEPES, 1 mM sodium pyruvate, 0.1 mM non-essential amino acids and 10% Fetal Bovine Serum at optimal cell density (between 1×10^5 cells/mL and 2×10^6 cells/mL). Prior to treatment, cells were pelleted by centrifugation and resuspended to a concentration of 5×10^5 cells/mL. Cells were then treated with phorbol myristate acetate (PMA) at a final concentration of 20 ng/ml. To each well of a 24-well plate, 1 ml of cell suspension was added, which was incubated overnight at 37° C.+5% CO2. The following day, RPMI media was replaced with fresh media and cells were treated in triplicate with vehicle or compounds at various concentrations (10^-7 to 10^-9 M) for 6 hr at 37° C. Media was removed and extraction of cellular RNA was performed using Trizol® (Invitrogen). Aliquots of RNA were reverse-transcribed to cDNA using oligo dT primers and Thermoscript reverse transcriptase according to the manufacturer's instructions (Invitrogen). Quantitative real-time PCR was performed using an ABI StepOnePlus system using the Taqman Universal PCR Master Mix. PCR reaction volumes of 20 μl were used with 50 cycles of amplification. Each cDNA sample was tested in duplicate using TaqMan® gene expression assays with the following ID numbers: human GAPDH (Hs99999905_m1), human CYP24 (Hs00167999_m1). The real-time PCR results were analyzed using the StepOne system software V2.1. Gene expression levels were calculated using the comparative CT method, and normalized to the GAPDH expression levels. The U937 cells have a low level of expression of CYP27B1 mRNA, for example compared to HPK1a-ras cells.

CYP24 = molecular target: T1, CYP24 (Homo sapiens, UniProt Q07973); test: CYP24 inhibitory activity: CYP24a1 transcription in HPK1a-ras cells treated with calcitriol plus test compound; type: cell-based; settings: 1 μM analog with 0.1 nM or 1 nM calcitriol, 6 hours
T1 construct: CYP24a1 relative transcription in HPK1a-ras cells treated for 6 hours with calcitriol; endogenous in cells; host or cells: HPK1a-ras cells
T1 sequence (Q07973 36-514): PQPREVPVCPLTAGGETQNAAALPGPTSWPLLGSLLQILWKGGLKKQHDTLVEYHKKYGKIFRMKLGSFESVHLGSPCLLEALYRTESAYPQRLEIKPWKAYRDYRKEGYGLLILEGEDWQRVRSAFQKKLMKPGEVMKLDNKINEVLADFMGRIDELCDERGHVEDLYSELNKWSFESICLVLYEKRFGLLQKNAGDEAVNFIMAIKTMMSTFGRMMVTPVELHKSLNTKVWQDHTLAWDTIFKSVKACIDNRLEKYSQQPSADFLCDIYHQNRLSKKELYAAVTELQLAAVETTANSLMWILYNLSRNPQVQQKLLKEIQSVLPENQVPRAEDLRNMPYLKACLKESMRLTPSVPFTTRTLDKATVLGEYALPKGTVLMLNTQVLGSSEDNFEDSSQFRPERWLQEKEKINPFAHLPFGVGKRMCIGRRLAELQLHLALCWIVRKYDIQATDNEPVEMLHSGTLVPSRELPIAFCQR
Description: CYP24a1 transcription activity in HPK1a-ras cells was determined for prodrugs Iaii and IIaii. As with the protocol described in Example 7, HPK1a-ras cells were maintained in Dulbecco's Modified Eagle's medium (DMEM) supplemented with 10% Fetal Bovine Serum and plated at 1×10^5 cells/well in 24-well plates. Prior to treatment with compounds, cells were washed with PBS and replaced with DMEM containing 1% Bovine Serum Albumin. Cells were treated in duplicate with vehicle or compounds at various concentrations (10^-6 to 10^-9 M) for 6 hr at 37° C. Media was removed and extraction of cellular RNA was performed using Trizol® (Invitrogen). […] Quantitative real-time PCR was performed using an ABI StepOnePlus system using the Taqman Universal PCR Master Mix. […] The real-time PCR results were analyzed using the StepOne system software V2.1. Gene expression levels were calculated using the comparative CT method, and normalized to the GAPDH expression levels
Transcriptional activity of calcitriol and Prodrugs was determined by CYP24a1 relative transcription in HPK1a-ras cells treated for 6 hours with calcitriol, combinations of calcitriol with Prodrugs Icii, Idii, and Ieii, and combinations of calcitriol with 1-hydroxylated active forms of Prodrugs Icii, Idii, and Ieii which are known CYP24 inhibitors.

VDR [2] = molecular target: T2, VDR (Homo sapiens, UniProt P11473); test: Binding to the Vitamin D Receptor (competition with [26,27-methyl-3H]-1α,25(OH)2D3)
T2 sequence (P11473 1-427): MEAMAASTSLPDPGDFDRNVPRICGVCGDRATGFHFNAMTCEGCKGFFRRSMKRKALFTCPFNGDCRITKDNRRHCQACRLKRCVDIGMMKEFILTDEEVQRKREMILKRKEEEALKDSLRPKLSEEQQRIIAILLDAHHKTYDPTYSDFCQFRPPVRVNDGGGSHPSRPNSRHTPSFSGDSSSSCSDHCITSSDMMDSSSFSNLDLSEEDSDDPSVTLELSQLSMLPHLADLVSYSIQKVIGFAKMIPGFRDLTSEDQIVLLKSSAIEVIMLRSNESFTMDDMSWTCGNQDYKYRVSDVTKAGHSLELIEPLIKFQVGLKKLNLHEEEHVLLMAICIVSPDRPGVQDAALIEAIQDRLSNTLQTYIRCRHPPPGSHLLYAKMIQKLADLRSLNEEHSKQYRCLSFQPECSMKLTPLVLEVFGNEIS
Description: Unbound radioactive ligand was removed by incubation with dextran-charcoal for 30 min on ice and pelleted by centrifugation at 2000 rpm for 10 min at 4° C. The radioactivity in 100 mL of the supernatant was measured using a scintillation counter. The control reactions contained either no VDR protein (background) or no competing ligand (maximum binding). The mean background binding was subtracted and the data divided by the mean maximum binding to yield B/Bmax values. The concentration necessary to displace 50% of [26,27-methyl-^3H]-1α,25(OH)2D3 from VDR was calculated as the B50.

PTH [3] = test: PTH in vitamin D deficient rats, IV and oral dosing; type: in vivo, Sprague Dawley rats; settings: 160 μg/kg, 3×/week for five days
Description: (§1) Vitamin D deficient Sprague Dawley rats were treated with Ibii 3×/week for five days by IV and oral routes, according to the Table below: […]

FGF23 = test: Serum FGF23 in adenine-induced uremic rats; type: in vivo, male Sprague-Dawley rats; settings: adenine treated rats, i.v. 0.2-10 mcg/kg, three times per week for two weeks
Description: (§2) Day 0 is the first day of dosing.

[4] = system: CYP24 transcription in HPK1a-ras cells; test: CYP24 transcription in HPK1a-ras cells (real-time PCR); type: cell-based, human; settings: for induction of CYP24 transcription compared to vehicle: 6 or 7 hours; for concentration at which significant transcriptional activity (CYP24) is displayed / CYP24 transcription activity (in words): HPK1a-ras cells; for concentration at which significant transcriptional activity (CYP24) is displayed: 6 hr; for CYP24 transcription activity (in words): which express CYP27B1
Description: (§3) HPK1a-ras cells were maintained in Dulbecco's Modified Eagle's medium (DMEM) supplemented with 10% Fetal Bovine Serum and plated at 1×10^5 cells/well in 24-well plates. The media was exchanged after 24 hours for DMEM containing 1% Bovine Serum Albumin. Cells were treated in duplicate with Ibii and control compounds at various concentrations (10^−6 to 10^−9M) for 6 or 7 hours. Extraction of cellular RNA was performed using Trizol® (Invitrogen). Aliquots of RNA were reverse-transcribed to cDNA using random hexamers and Thermoscript reverse transcriptase according to the manufacturer's instructions (Invitrogen). Quantitative real-time PCR was performed using an ABI StepOnePlus system using the Taqman Universal PCR Master Mix. PCR reaction volumes of 20 μL were used with 50 cycles of amplification. Each cDNA sample was tested in duplicate using TaqMan® gene expression assays with the following ID numbers: human GAPDH (Hs99999905_m1), human CYP24 (Hs00167999_m1). The real-time PCR results were analyzed using the StepOne system software V2.1. Gene expression levels were calculated using the comparative CT method, and normalized to the GAPDH expression levels.
CYP24a1 transcription activity in HPK1a-ras cells was determined for prodrugs Iaii and IIaii. As with the protocol described in Example 7, HPK1a-ras cells were maintained in Dulbecco's Modified Eagle's medium (DMEM) supplemented with 10% Fetal Bovine Serum and plated at 1×10^5 cells/well in 24-well plates. Prior to treatment with compounds, cells were washed with PBS and replaced with DMEM containing 1% Bovine Serum Albumin. Cells were treated in duplicate with vehicle or compounds at various concentrations (10^-6 to 10^-9 M) for 6 hr at 37° C. Media was removed and extraction of cellular RNA was performed using Trizol® (Invitrogen). Aliquots of RNA were reverse-transcribed to cDNA using oligo dT primers and Thermoscript reverse transcriptase according to the manufacturer's instructions (Invitrogen). Quantitative real-time PCR was performed using an ABI StepOnePlus system using the Taqman Universal PCR Master Mix. PCR reaction volumes of 20 μl were used with 50 cycles of amplification. Each cDNA sample was tested in duplicate using TaqMan® gene expression assays with the following ID numbers: human GAPDH (Hs99999905_m1), human CYP24 (Hs00167999_m1). The real-time PCR results were analyzed using the StepOne system software V2.1. Gene expression levels were calculated using the comparative CT method, and normalized to the GAPDH expression levels

PTH [5] = test: Serum PTH in adenine-induced uremic rats; type: in vivo, male Sprague-Dawley rats; settings: adenine treated rats
Description: as §2

[6] = system: CYP27b1 transcription in HPK1a-ras cells; test: CYP27b1 transcription in HPK1a-ras cells (real-time PCR); type: cell-based, human
Description: as §3, with “duplicate.” for “duplicate using TaqMan® gene expression assays with the following ID numbers: human GAPDH (Hs99999905_m1), human CYP24 (Hs00167999_m1).”

[7] = Body weight in vitamin D deficient rats; type: in vivo, Sprague Dawley rats; settings: IV and oral, 160 μg/kg
Description: as §1

VDR [8] = molecular target: T2, VDR; settings: relative to active Vitamin D hormones / 1,25-hydroxyvitamin D3; cited from earlier work

Row | SMILES | relative CYP24 expression (compared to calcitriol) [1] | CYP24 inhibitory effect (increased CYP24a1 transcription with calcitriol) (CYP24) | concentration at which significant transcriptional activity (CYP24) is displayed [4] [nM] | binding to the VDR (in words) (VDR [2]) | CYP24 transcription activity (in words) [4] | other results
1 | C=C1CCC(O)CC1=CC=C1CCCC2(C)C1CCC2C(C)CCCS(=N)(=O)c1ccccc1 (stereo not drawn) [Prodrug Icii, 3-{2-[1-(4-Benzenesulfoximine-1-methyl-butyl)-7α-methyl-octahydro-inden-4-ylidene]-ethylidene}-4-methylene-cyclohexanol] | inactive | CYP24 inhibitory effect |  |  |  | 
2 | C=C1CCC(O)CC1=CC=C1CCCC2(C)C(C(C)CC=CS(=O)(=O)C(C)(C)C)=CCC12 (stereo not drawn) [Prodrug Ibii, 4-Methylene-3-(2-{7α-methyl-1-[1-methyl-4-(2-methyl-propane-2-sulfonyl)-but-3-enyl]-3,3α,5,6,7,7a-hexahydro-inden-4-ylidene}-ethylidene)-cyclohexanol] | inactive |  | 100 |  |  | IC50 (VDR [2]; read-out: B50 (concentration necessary to displace 50% of [26,27-methyl-3H]-1α,25(OH)2D3 from VDR), in vitro, human recombinant VDR): > 1000 nM; effect on PTH (PTH [3]; intravenous): can effectively lower PTH; effect on PTH (PTH [3]; oral): can effectively lower PTH; effect on serum FGF23 levels (FGF23): does not increase serum FGF23 levels; induction of CYP24 transcription compared to vehicle ([4]; 100 nM, HPK1aRas cells): about 100 fold; induction of CYP24 transcription compared to vehicle ([4]; 1 μM, HPK1aRas cells): about 500 fold; potency in CYP24 transcription relative to its 1-hydroxylated analog ([4]; HPK1aRas cells): about 1/100; induction of CYP24A1 transcription at lower concentrations ([4]; concentrations below 100 nM, HPK1aRas cells): did not significantly induce; potency in decreasing circulating iPTH levels versus the 1-hydroxy active form (PTH [5]; i.v.): comparable to but lower than the 1-hydroxy active form; circulating iPTH levels in serum (PTH [5]; i.v. 0.2-10 mcg/kg, three times per week for two weeks): can lower circulating iPTH levels; transcription of CYP27b1 compared to vehicle [6]: not significantly affected; effects on body weight (overt toxicity) [7]: does not exhibit overt toxicity
3 | C=C1CCC(O)CC1=CC=C1CCCC2(C)C1CCC2C(C)CCS(=O)(=O)c1ccccc1 (stereo not drawn) [Prodrug Idii, 3-{2-[1-(3-Benzenesulfonyl-1-methyl-propyl)-7α-methyl-octahydro-inden-4-ylidene]-ethylidene}-4-methylene-cyclohexanol] | inactive | CYP24 inhibitory effect |  |  |  | 
4 | C=C1CCC(O)CC1=CC=C1CCCC2(C)C1CCC2C(C)CCC(F)(F)S(=O)(=O)C(C)(C)C (stereo not drawn) [Prodrug Iaii, 3-(2-{1-[4,4-Difluoro-1-methyl-4-(2-methyl-propane-2-sulfonyl)-butyl]-7α-methyl-3,3α,5,6,7,7a-hexahydro-inden-4-ylidene}-ethylidene)-4-methylene-cyclohexanol] | inactive |  | 1000 | do not bind to the VDR | active | 
5 | C=CCO/N=C(\CCC[C@@H](C)C1=CC[C@H]2/C(=C/C=C3/C[C@@H](O)CCC3=C)CCC[C@]12C)C(C)(C)C [Prodrug IIaii, 7-{4-[2-(5-Hydroxy-2-methylene-cyclohexylidene)-ethylidene]-7α-methyl-3α,4,5,6,7,7a-hexahydro-3H-inden-1-yl}-2,2-dimethyl-octan-3-one 0-allyl-oxime] | inactive |  | 1000 | do not bind to the VDR | active | 
6 | C=C1CC[C@H](O)C/C1=C/C=C1\CCC[C@]2(C)C([C@H](C)CCCC(C)(C)O)CC[C@@H]12 (stereo partly drawn) [25-hydroxyvitamin D3] |  |  |  |  |  | affinity for the VDR, fold lower than the active Vitamin D hormone (VDR [8]): 100 fold
